Test results: the supplement of paper PMC8967900

Experiments:
Assay in all cases: selective drug sensitivity score (sDSS, relative to normal bone marrow) (sDSS (score)); higher = more potent and effective on the cell line relative to normal bone marrow cells
Conditions in all cases: 72 h
[1] = tested on: ALL-SIL
[2] = tested on: COG-LL-332h
[3] = tested on: P12-ICHIKAWA
[4] = tested on: COG-LL-394h
[5] = tested on: KASUMI-2
[6] = tested on: NALM-6
[7] = tested on: COG-LL-317
[8] = tested on: LC4-1
[9] = tested on: JURKAT
[10] = tested on: CCRF-CEM
[11] = tested on: MHH-CALL-3
[12] = tested on: NALM-16
[13] = tested on: DND-41
[14] = tested on: ALL-PO
[15] = tested on: KASUMI-10
[16] = tested on: 380
[17] = tested on: 697
[18] = tested on: RPMI-8402
[19] = tested on: RCH-ACV
[20] = tested on: COG-LL-402h
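Also: ALL cell lines in 384-well plates, five doses spanning 10,000-fold, each plate scaled between vehicle and 100 µmol/L benzalkonium chloride controls, sDSS an adapted area-under-curve metric.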

## COC12C(COC(N)=O)C3=C(C(=O)C(C)=C(N)C3=O)N1CC1NC12 (stereo in doubt) [Mitomycin_C] (top concentration 10000 nM)
[1]
  selective drug sensitivity score: -2.86
[2]
  selective drug sensitivity score: -2.86
[3]
  selective drug sensitivity score: -2.86
[4]
  selective drug sensitivity score: -2.86
[5]
  selective drug sensitivity score: 4.24
[6]
  selective drug sensitivity score: -2.86
[7]
  selective drug sensitivity score: -2.66
[8]
  selective drug sensitivity score: 2.34
[9]
  selective drug sensitivity score: -2.86
[10]
  selective drug sensitivity score: -2.86
[11]
  selective drug sensitivity score: -2.86
[12]
  selective drug sensitivity score: -2.86
[13]
  selective drug sensitivity score: -2.86
[14]
  selective drug sensitivity score: -0.76
[15]
  selective drug sensitivity score: -2.86
[16]
  selective drug sensitivity score: -1.36
[17]
  selective drug sensitivity score: 2.34
[18]
  selective drug sensitivity score: -2.86
[19]
  selective drug sensitivity score: 4.84
[20]
  selective drug sensitivity score: -2.86

## Cc1c(-c2c(-c3ccc(F)o3)sc3ncnc(O[C@H](Cc4ccccc4OCc4ccnn4CC(F)(F)F)C(=O)O)c23)ccc(OCCN2CCN(C)CC2)c1Cl (top concentration 1000 nM)
[1]
  selective drug sensitivity score: -1.04
[2]
  selective drug sensitivity score: -5.84
[3]
  selective drug sensitivity score: -5.84
[4]
  selective drug sensitivity score: -4.54
[5]
  selective drug sensitivity score: -4.34
[6]
  selective drug sensitivity score: -3.44
[7]
  selective drug sensitivity score: -2.84
[8]
  selective drug sensitivity score: -0.54
[9]
  selective drug sensitivity score: -6.44
[10]
  selective drug sensitivity score: -0.24
[11]
  selective drug sensitivity score: 1.56
[12]
  selective drug sensitivity score: -4.64
[13]
  selective drug sensitivity score: -7.74
[14]
  selective drug sensitivity score: -7.74
[15]
  selective drug sensitivity score: -2.64
[16]
  selective drug sensitivity score: 0.86
[17]
  selective drug sensitivity score: -0.84
[18]
  selective drug sensitivity score: -4.54
[19]
  selective drug sensitivity score: -6.54
[20]
  selective drug sensitivity score: 6.06

## Cc1ncc(Cl)cc1NCc1ccc(C(=O)N[C@@H](CC2CCCC2)C(=O)NC2CC2)s1 (top concentration 5000 nM)
[1]
  selective drug sensitivity score: 4.16
[2]
  selective drug sensitivity score: 1.86
[3]
  selective drug sensitivity score: -0.94
[4]
  selective drug sensitivity score: 1.36
[5]
  selective drug sensitivity score: 4.56
[6]
  selective drug sensitivity score: -0.94
[7]
  selective drug sensitivity score: 18.9
[8]
  selective drug sensitivity score: -0.94
[9]
  selective drug sensitivity score: 0.76
[10]
  selective drug sensitivity score: -0.94
[11]
  selective drug sensitivity score: 8.26
[12]
  selective drug sensitivity score: 1.06
[13]
  selective drug sensitivity score: -0.94
[14]
  selective drug sensitivity score: -0.94
[15]
  selective drug sensitivity score: 2.46
[16]
  selective drug sensitivity score: 9.86
[17]
  selective drug sensitivity score: -0.94
[18]
  selective drug sensitivity score: -0.94
[19]
  selective drug sensitivity score: 1.46
[20]
  selective drug sensitivity score: 13.1

## CCn1c(-c2nonc2N)nc2c(C#CC(C)(C)O)ncc(OC[C@H]3CCCNC3)c21 (top concentration 10000 nM)
[1]
  selective drug sensitivity score: 6.68
[2]
  selective drug sensitivity score: 9.28
[3]
  selective drug sensitivity score: 4.68
[4]
  selective drug sensitivity score: 2.18
[5]
  selective drug sensitivity score: 6.38
[6]
  selective drug sensitivity score: 8.78
[7]
  selective drug sensitivity score: 14.8
[8]
  selective drug sensitivity score: 1.08
[9]
  selective drug sensitivity score: 7.48
[10]
  selective drug sensitivity score: 11.9
[11]
  selective drug sensitivity score: 3.38
[12]
  selective drug sensitivity score: 2.68
[13]
  selective drug sensitivity score: -1.12
[14]
  selective drug sensitivity score: 8.18
[15]
  selective drug sensitivity score: 0.88
[16]
  selective drug sensitivity score: 8.58
[17]
  selective drug sensitivity score: 8.28
[18]
  selective drug sensitivity score: 6.48
[19]
  selective drug sensitivity score: 17.1
[20]
  selective drug sensitivity score: 8.28

## CN(c1ncccc1CNc1nc(Nc2ccc3c(c2)CC(=O)N3)ncc1C(F)(F)F)S(C)(=O)=O (top concentration 10000 nM)
[1]
  selective drug sensitivity score: 4.92
[2]
  selective drug sensitivity score: 2.02
[3]
  selective drug sensitivity score: -0.08
[4]
  selective drug sensitivity score: -0.08
[5]
  selective drug sensitivity score: -0.38
[6]
  selective drug sensitivity score: 5.22
[7]
  selective drug sensitivity score: -1.28
[8]
  selective drug sensitivity score: 3.82
[9]
  selective drug sensitivity score: 1.52
[10]
  selective drug sensitivity score: -0.28
[11]
  selective drug sensitivity score: 4.82
[12]
  selective drug sensitivity score: 0.42
[13]
  selective drug sensitivity score: 0.62
[14]
  selective drug sensitivity score: 6.62
[15]
  selective drug sensitivity score: 6.62
[16]
  selective drug sensitivity score: 4.02
[17]
  selective drug sensitivity score: 2.62
[18]
  selective drug sensitivity score: 1.52
[19]
  selective drug sensitivity score: 3.62
[20]
  selective drug sensitivity score: 2.42

## CNc1ncc2cc(-c3cc(NC(=O)NCCC(C)(C)C)c(F)cc3C)c(C)nc2n1 (top concentration 10000 nM)
[1]
  selective drug sensitivity score: 20.7
[2]
  selective drug sensitivity score: 9.06
[3]
  selective drug sensitivity score: 11
[4]
  selective drug sensitivity score: 5.76
[5]
  selective drug sensitivity score: 0.36
[6]
  selective drug sensitivity score: 6.66
[7]
  selective drug sensitivity score: -0.24
[8]
  selective drug sensitivity score: 7.86
[9]
  selective drug sensitivity score: 2.56
[10]
  selective drug sensitivity score: 5.56
[11]
  selective drug sensitivity score: 8.66
[12]
  selective drug sensitivity score: 1.76
[13]
  selective drug sensitivity score: 8.06
[14]
  selective drug sensitivity score: 4.86
[15]
  selective drug sensitivity score: 3.96
[16]
  selective drug sensitivity score: 7.76
[17]
  selective drug sensitivity score: 10.5
[18]
  selective drug sensitivity score: 0.66
[19]
  selective drug sensitivity score: 12.7
[20]
  selective drug sensitivity score: 6.76

## C[C@@]1(C(=O)Nc2ccc(F)nc2)CCCN1c1nc(Nc2cc(C3CC3)n[nH]2)c2cccn2n1 (top concentration 10000 nM)
[1]
  selective drug sensitivity score: 10.5
[2]
  selective drug sensitivity score: 10.5
[3]
  selective drug sensitivity score: 11.3
[4]
  selective drug sensitivity score: 5.98
[5]
  selective drug sensitivity score: -6.52
[6]
  selective drug sensitivity score: 4.08
[7]
  selective drug sensitivity score: 12.5
[8]
  selective drug sensitivity score: 11.4
[9]
  selective drug sensitivity score: -2.62
[10]
  selective drug sensitivity score: 11.8
[11]
  selective drug sensitivity score: 3.28
[12]
  selective drug sensitivity score: 2.88
[13]
  selective drug sensitivity score: -5.02
[14]
  selective drug sensitivity score: 13
[15]
  selective drug sensitivity score: 4.68
[16]
  selective drug sensitivity score: 18.1
[17]
  selective drug sensitivity score: 11.8
[18]
  selective drug sensitivity score: 5.58
[19]
  selective drug sensitivity score: 6.08
[20]
  selective drug sensitivity score: 8.18

## Cc1nc(Nc2n[nH]c3c2CN(C(=O)N[C@H](CN(C)C)c2ccccc2)C3(C)C)c2sccc2n1 (top concentration 10000 nM)
[1]
  selective drug sensitivity score: -5.82
[2]
  selective drug sensitivity score: 7.58
[3]
  selective drug sensitivity score: 3.68
[4]
  selective drug sensitivity score: -7.92
[5]
  selective drug sensitivity score: 3.28
[6]
  selective drug sensitivity score: 1.18
[7]
  selective drug sensitivity score: 18.6
[8]
  selective drug sensitivity score: 3.98
[9]
  selective drug sensitivity score: 0.68
[10]
  selective drug sensitivity score: 6.98
[11]
  selective drug sensitivity score: 0.18
[12]
  selective drug sensitivity score: 2.58
[13]
  selective drug sensitivity score: 0.98
[14]
  selective drug sensitivity score: 5.58
[15]
  selective drug sensitivity score: 1.68
[16]
  selective drug sensitivity score: 22.2
[17]
  selective drug sensitivity score: 16.4
[18]
  selective drug sensitivity score: 6.38
[19]
  selective drug sensitivity score: 22.7
[20]
  selective drug sensitivity score: 6.18

## Cn1cc(-c2[nH]c3cc(NC(=O)[C@H](N)C4CCCCC4)cc4c3c2C=NNC4=O)cn1 (top concentration 10000 nM)
[1]
  selective drug sensitivity score: 9.18
[2]
  selective drug sensitivity score: 4.98
[3]
  selective drug sensitivity score: 7.38
[4]
  selective drug sensitivity score: -0.72
[5]
  selective drug sensitivity score: -6.12
[6]
  selective drug sensitivity score: 6.28
[7]
  selective drug sensitivity score: 6.08
[8]
  selective drug sensitivity score: 7.58
[9]
  selective drug sensitivity score: 3.48
[10]
  selective drug sensitivity score: 6.08
[11]
  selective drug sensitivity score: 0.38
[12]
  selective drug sensitivity score: 3.98
[13]
  selective drug sensitivity score: 10.3
[14]
  selective drug sensitivity score: 9.28
[15]
  selective drug sensitivity score: 5.88
[16]
  selective drug sensitivity score: 8.68
[17]
  selective drug sensitivity score: 9.38
[18]
  selective drug sensitivity score: 9.68
[19]
  selective drug sensitivity score: 11.5
[20]
  selective drug sensitivity score: 7.08
